Here are results for 27 molecules from patent US20160101188A1, “NOVEL NANOCARRIER DELIVERED CANCER CHEMOTHERAPEUTIC AGENTS” (UNIVERSITY OF CINCINNATI, priority 2013, published 2016).

As usually defined, the IC50 is the midpoint of a concentration-inhibition curve.

The first assay concerns MCF7 (breast cancer) cells. The experiment in a line: MTT cytotoxicity assay in MCF7 breast cancer cells. Type of assay: cell-based. The settings on record: 65 hours incubation, read-out: IC50, viability of MCF7 cells from the MTT assay. Here is the method: The cyctoxicity of compounds was determined in MCF 7 (breast cancer) cells.
MCF7 cells were grown in RPMI 1640 media with 10 nM estrogen and 1 mM insulin. Cells were tyripsinized and resuspended at a density of 2.2×10^4 cells per mL. 500 μL of this suspension was added to each well in a 24 well plate. The plates were incubated at 37° C. and 5% CO2 atmosphere overnight. The media was changed, and plates were dosed in triplicate with compound dissolved in DMSO. Cells were dosed not to exceed 0.5% DMSO in solution. Cells were dosed to a final concentration of 100, 50, 25, 12.5, and 6.25 μM of compound. 5-Flurouracil was used as a positive control and dosed in the same manner. Plates were incubated for 65 hours prior to the addition of MTT solution. 500 μL of a 193 μg/mL MTT and media solution was added to each well. Plates were incubated for 3 hours. The MTT solution was removed and 500 μL of DMSO was added to each well. Cells were imaged using GS 800 Bio Rad scanner and Quality One Software. IC50 curves were determined by plotting viability verses compound concentration. Kaleidagraph software was used to calculate the R value for each logarithmic curve fitting.
Take `Cc1ccccc1C(OCc1cn([C@H]2C[C@H](O)[C@@H](CO)O2)c(=O)[nH]c1=O)C(C)(C)C` (stereo partly drawn) [KB-1-100, 5-[1-(2-methyl)phenyl-2,2-(dimethyl)propoxymethyl]-2′-deoxyuridine]: the IC50 amounted to 121 µM.

In the case of `COCC#Cc1ccc(C(OCc2cn([C@H]3C[C@H](O)[C@@H](CO)O3)c(=O)[nH]c2=O)C(C)(C)C)c([N+](=O)[O-])c1` (stereo partly drawn) [VAL-1-48, 5-[1-(4-{3-methoxy}proyn-1yl-2-nitrophenyl)-2,2-(dimethyl)-1-propoxymethyl]-2′-deoxyuridine], the IC50 is 74 ± 7 µM.

Regarding `COc1cccc(C(OCc2cn([C@H]3C[C@H](O)[C@@H](CO)O3)c(=O)[nH]c2=O)C(C)(C)C)c1` (stereo partly drawn) [SS-1-11, 5-[1-(3-methoxyphenyl)-2,2-(dimethyl)propoxymethyl]-2′-deoxyundine], the IC50 is 66 µM.

For `O=c1[nH]c(=O)n([C@H]2C[C@H](O)[C@@H](CO)O2)cc1COC(c1ccccc1)C1CCCCC1` (stereo partly drawn) [PRW-1-13, 5-[1-(phenyl)-1-(cyclohexyl)methoxymethyl]-2′-deoxyundine], the IC50 turned out to be 93 µM.

For the molecule `CC(C)(C)C(OCc1c[nH]c(=O)[nH]c1=O)c1ccccc1` (stereo not drawn) [KB-1-23, 5-[1-phenyl-2,2-(dimethyl)propoxymethyl]uracil], the IC50 stood at 59 µM.

On to `CC(C)(C)CC(OCc1c[nH]c(=O)[nH]c1=O)c1ccccc1` (stereo not drawn) [SL-1-7, 5-[1-phenyl-3,3-(dimethyl)butoxymethyl]uracil], for which the IC50 was found to be 37 µM.

`COc1ccccc1C(OCc1cn([C@H]2C[C@H](O)[C@@H](CO)O2)c(=O)[nH]c1=O)C(C)(C)C` (stereo partly drawn) [MPB-1-36, 5-[1-(2-methoxyphenyl)-2,2-(dimethyl)propoxymethyl]-2′-deoxyuridine]: the IC50 came out at 94 µM.

As for `CC(C)(C)C(OCc1cn([C@H]2C[C@H](O)[C@@H](CO)O2)c(=O)[nH]c1=O)c1ccccc1C#N` (stereo partly drawn) [VAL-1-28, 5-[1-(2-cyanophenyl)-2,2-(dimethyl)propoxymethyl]-2′-deoxyuridine], the IC50 was found to be 106 µM.

On to `CC(C)(C)C(OCc1cn([C@H]2C[C@H](O)[C@@H](CO)O2)c(=O)[nH]c1=O)c1ccccc1CBr` (stereo partly drawn) [KB-1-135, 5-[1-(2-bromomethyl)phenyl-2,2-(dimethyl)propoxymethyl]-2′-deoxyuridine], for which the IC50 amounted to 72 µM.

Consider `CC(C)(C)C(OCc1cn([C@H]2C[C@H](O)[C@@H](CO)O2)c(=O)[nH]c1=O)c1ccc(C#C[Si](C)(C)C)cc1[N+](=O)[O-]` (stereo partly drawn) [VAL-1-49, 5-[1-(4-{trimethylsilyl}acetylenyl-2-nitrophenyl)-2,2-(dimethyl)-1-propoxymethyl]-2′-deoxyuridine], for which the concentration for half-maximal inhibition (IC50) turned out to be 29 ± 3 µM.

Take `CC(C)(C)C(OCc1cn([C@H]2C[C@H](O)[C@@H](CO)O2)c(=O)[nH]c1=O)c1c(Cl)cccc1Cl` (stereo partly drawn) [MPB-1-57, 5-[1-(2,6-dichlorophenyl)-2,2-(dimethyl)propoxymethyl]-2′-deoxyuridine]: the IC50 worked out at 60 µM.

For `O=c1[nH]c(=O)n([C@H]2C[C@H](O)[C@@H](CO)O2)cc1COC(c1ccccc1)c1ccccc1[N+](=O)[O-]` (stereo partly drawn) [KB-1-85, 5-[{(2-nitrophenyl)phenyl}methoxymethyl]-2′-deoxyundine], the IC50 came to 50 µM.

`CC(C)(C)C(OCc1cn([C@H]2C[C@H](O)[C@@H](CO)O2)c(=O)[nH]c1=O)c1ccc(I)cc1[N+](=O)[O-]` (stereo partly drawn) [MPB-1-33, 5-[1-(4-iodo-2-nitrophenyl)-2,2-(dimethyl)propoxymethyl]-2′-deoxyuridine]: the IC50 amounted to 56 ± 6 µM.

In the case of `CC(C)(C)CC(OCc1cn([C@H]2C[C@H](O)[C@@H](CO)O2)c(=O)[nH]c1=O)c1ccccc1[N+](=O)[O-]` (stereo partly drawn) [KB-1-91, 5-[1-(2-nitrophenyl)-3,3-(dimethyl)butoxymethyl]-2′-deoxyuridine], the IC50 came to 62 µM.

On to `C#Cc1ccc(C(OCc2cn([C@H]3C[C@H](O)[C@@H](CO)O3)c(=O)[nH]c2=O)C(C)(C)C)c([N+](=O)[O-])c1` (stereo partly drawn) [VAL-1-50, 5-[1-(4-acetylenyl-2-nitrophenyl)-2,2-(dimethyl)propoxymethyl]-2′-deoxyuridine], for which the IC50 was determined as 89 ± 14 µM.

For `CC(C)(C)C(OCc1cn([C@H]2C[C@H](O)[C@@H](CO)O2)c(=O)[nH]c1=O)c1ccc(C#CCOc2ccc3ccc(=O)oc3c2)cc1[N+](=O)[O-]` (stereo partly drawn) [MPB-1-41, 5-[1-(4-{3-(7-coumarin)oxy}proyn-1-yl-2-nitrophenyl)-2,2-(dimethyl)propoxymethyl]-2′-deoxyuridine], the concentration for half-maximal inhibition (IC50) turned out to be 16 ± 3 µM.

As for `O=c1[nH]c(=O)n([C@H]2C[C@H](O)[C@@H](CO)O2)cc1COC(c1ccccc1)c1c([N+](=O)[O-])cccc1[N+](=O)[O-]` (stereo partly drawn) [TZ-1-13F3, 5-[{(2,6-dinitrophenyl)phenyl}methoxymethyl]-2′-deoxyuridine], the IC50 turned out to be 44 µM.

For `COc1ccc(C(OCc2cn([C@H]3C[C@H](O)[C@@H](CO)O3)c(=O)[nH]c2=O)C(C)(C)C)cc1` (stereo partly drawn) [KB-1-55, 5-[1-(4-methoxyphenyl)-2,2-(dimethyl)propoxymethyl]-2′-deoxyuridine], the IC50 is 183 µM.

As to `CC(C)(C)C(OCc1cn([C@H]2C[C@H](O)[C@@H](CO)O2)c(=O)[nH]c1=O)c1ccccc1Cl` (stereo partly drawn) [MPB-1-49, 5-[1-(2-chlorophenyl)-2,2-(dimethyl)propoxymethyl]-2′-deoxyundine], the IC50 is 80 µM.

Regarding `CC(C)(C)C(OCc1cn([C@H]2C[C@H](O)[C@@H](CO)O2)c(=O)[nH]c1=O)c1c([N+](=O)[O-])cccc1[N+](=O)[O-]` (stereo partly drawn) [MPB-1-55, 5-[1-(2,6-dinitrophenyl)-2,2-(dimethyl)propoxymethyl]-2′-deoxyuridine], the IC50 was found to be 96 µM.

As to `CC(OCc1cn([C@H]2C[C@H](O)[C@@H](CO)O2)c(=O)[nH]c1=O)c1ccccc1[N+](=O)[O-]` (stereo partly drawn) [VAL-1-26, 5-[1-(2-nitrophenyl)ethoxymethyl]-2′-deoxyuridine], the IC50 was approximately 150 µM.

Regarding `O=c1[nH]c(=O)n([C@H]2C[C@H](O)[C@@H](CO)O2)cc1COC(c1ccccc1[N+](=O)[O-])C1CCCCC1` (stereo partly drawn) [PRW-1-18, 5-[1-(2-nitro)phenyl-1-(cyclohexyl)methoxymethyl]-2′-deoxyuridine], the IC50 stood at 63 µM.

Staying with this assay, now noted: Homo sapiens, MCF7, 65 h, 65 hours incubation, read-out: IC50, viability of MCF7 cells from the MTT assay.
Take `CC(OCc1cn([C@H]2C[C@H](O)[C@@H](CO)O2)c(=O)[nH]c1=O)c1ccccc1` (stereo partly drawn) [VAL-1-10, 5-[1-(phenyl)ethoxymethyl]-2′-deoxyuridine]: the IC50 is more than 200 µM.

For the molecule `O=c1[nH]c(=O)n([C@H]2C[C@H](O)[C@@H](CO)O2)cc1COC(c1ccccc1)c1ccccc1` [KB-1-10, 5-[(diphenyl)methoxymethyl]-2′-deoxyuridine], the concentration for half-maximal inhibition (IC50) is 160 µM.

Regarding `CC(C)C(OCc1c[nH]c(=O)[nH]c1=O)c1ccccc1` (stereo not drawn) [KB-1-1, 5-[1-phenyl-2-(methyl)propoxymethyl]uracil], the IC50 is more than 200 µM.

In the case of `CC(OCc1cn([C@H]2C[C@H](O)[C@@H](CO)O2)c(=O)[nH]c1=O)c1ccccc1[N+](=O)[O-]` (stereo partly drawn) [VAL-1-25, 5-[1-(2-nitrophenyl)ethoxymethyl]-2′-deoxyuridine], the half-inhibitory concentration (IC50) was approximately 170 µM.

Consider `CC(C)COC(c1ccccc1)c1cn([C@H]2C[C@H](O)[C@@H](CO)O2)c(=O)[nH]c1=O` (stereo partly drawn) [MPB-1-25, 5-[1-(phenyl)-2-(methyl)-1-propoxymethyl]-2′-deoxyuridine], for which the concentration for half-maximal inhibition (IC50) was more than 150 µM.
